Reference: patent US10131673B2, “Piperidine substituted tricyclic pyrazolo[1,5-a]pyrimidine derivatives with inhibitory activity on the replication of the respiratory syncytial virus (RSV)” (priority 2014, dated 2018)

Assays:
rgRSV224 virus = assay: microbe, parasite or virus in culture; format: cell-based, respiratory syncytial virus (RSV); settings: human respiratory syncytial virus, HeLa, 72 h, read-out: RSV HELA pEC50 (converted)

Description for HeLa cells: Black 384-well clear-bottom microtiter plates (Corning, Amsterdam, The Netherlands) were filled via acoustic drop ejection using the echo liquid handler (Labcyte, Sunnyvale, Calif.). 200 nL of compound stock solutions (100% DMSO) were transferred to the assay plates. 9 serial 4-fold dilutions of compound were made, creating per quadrant the same compound concentration. The assay was initiated by adding 10 μL of culture medium to each well (RPMI medium without phenol red, 10% FBS-heat inactivated, 0.04% gentamycin (50 mg/mL). All addition steps are done by using a multidrop dispenser (Thermo Scientific, Erembodegem, Belgium). Next, rgRSV224 virus (MOI=1) diluted in culture medium was added to the plates. rgRSV224 virus is an engineered virus that includes an additional GFP gene (Hallak L K, Spillmann D, Collins P L, Peeples M E. Glycosaminoglycan sulfation requirements for respiratory syncytial virus infection; Journal of virology (2000), 74(22), 10508-13) and was in-licensed from the NIH (Bethesda, Md., USA). Finally, 20 μL of a HeLa cell suspension (3,000 cells/well) were plated. Medium, virus- and mock-infected controls were included in each test. The wells contain 0.05% DMSO per volume. Cells were incubated at 37° C. in a 5% CO2 atmosphere. Three days post-virus exposure, viral replication was quantified by measuring GFP expression in the cells by an in house developed MSM laser microscope (Tibotec, Beerse, Belgium). The EC50 was defined as the 50% inhibitory concentration for GFP expression. In parallel, compounds were incubated for three days in a set of white 384-well microtiter plates (Corning) and the cytotoxicity of compounds in HeLa cells was determined by measuring the ATP content of the cells using the ATPlite kit (Perkin Elmer, Zaventem, Belgium) according to the manufacturer's instructions. The CC50 was defined as the 50% concentration for cytotoxicity.

Structure (SMILES) | EC50 (rgRSV224 virus) | TOX HELA pCC50 (HeLa cells)
Cc1ccc(NS(C)(=O)=O)c(C(=O)N2CCCCC2c2cc3nc4c(c(N5CCOCC5)n3n2)CCCC4)c1 (racemic) [Compound P1, N-(4-methyl-2-(2-(9-morpholino-5,6,7,8-tetrahydropyrazolo[5,1-b]quinazolin-2-yl)piperidine-1-carbonyl)phenyl)methanesulfonamide] | 1.78 nM | 4.4
Cc1nc2cc(C3CCCCN3c3ncnc4cccc(C)c34)nn2c2c1CCCC2 (racemic) [Compound P36, 5-methyl-2-(1-(5-methylquinazolin-4-yl)piperidin-2-yl)-6,7,8,9-tetrahydropyrazolo[1,5-a]quinazoline] | 977 nM | 4.6
Cc1ccc(NS(C)(=O)=O)c(C(=O)N2CCCC[C@@H]2c2cc3nc4c(c(N5CCOCC5)n3n2)CCCC4)c1 [Compound P2, (R)—N-(4-methyl-2-(2-(9-morpholino-5,6,7,8-tetrahydropyrazolo[5,1-b]quinazolin-2-yl)-piperidine-1-carbonyl)phenyl)methanesulfonamide] | 13.2 nM | 4.3
Cc1ccc(NS(C)(=O)=O)c(C(=O)N2CCCC[C@H]2c2cc3nc4c(c(N5CCOCC5)n3n2)CCCC4)c1 [Compound P3, (S)—N-(4-methyl-2-(2-(9-morpholino-5,6,7,8-tetrahydropyrazolo[5,1-b]quinazolin-2-yl)piperidine-1-carbonyl)-phenyl)methanesulfonamide] | 0.562 nM | 4.5
Cc1ccc2ncnc(N3CCCCC3c3cc4nc5c(c(N6CCOCC6)n4n3)CCCC5)c2c1 (centres unmarked) [Compound P4, 4-(2-(1-(6-methylquinazolin-4-yl)piperidin-2-yl)-5,6,7,8-tetrahydropyrazolo[5,1-b]quinazolin-9-yl)morpholine] | 166 nM | 4.7
Cc1cccc2ncnc(N3CCCCC3c3cc4nc5c(c(N6CCOCC6)n4n3)CCCC5)c12 (centres unmarked) [Compound P5, 4-(2-(1-(5-methylquinazolin-4-yl)piperidin-2-yl)-5,6,7,8-tetrahydropyrazolo[5,1-b]quinazolin-9-yl)morpholine] | 275 nM | 4.6
Cc1cccc2nc(Cl)nc(N3CCCCC3c3cc4nc5c(c(N6CCOCC6)n4n3)CCCC5)c12 (centres unmarked) [Compound P6, 4-(2-(1-(2-chloro-5-methylquinazolin-4-yl)piperidin-2-yl)-5,6,7,8-tetrahydropyrazolo[5,1-b]quinazolin-9-yl)morpholine] | 1200 nM | 4.8
Cc1cccc2nc(NS(C)(=O)=O)nc(N3CCCCC3c3cc4nc5c(c(N6CCOCC6)n4n3)CCCC5)c12 (centres unmarked) [Compound P7, N-(5-methyl-4-(2-(9-morpholino-5,6,7,8-tetrahydropyrazolo[5,1-b]-quinazolin-2-yl)piperidin-1-yl)quinazolin-2-yl)methanesulfonamide] | 6.03 nM | 4.2
Cc1ccc2nc(Cl)nc(N3CCCCC3c3cc4nc5c(c(N6CCOCC6)n4n3)CCCC5)c2c1 (centres unmarked) [Compound P8, 4-(2-(1-(2-chloro-6-methylquinazolin-4-yl)piperidin-2-yl)-5,6,7,8-tetrahydropyrazolo[5,1-b]quinazolin-9-yl)morpholine] | 162 nM | 4.5
Cc1ccc2nc(NS(C)(=O)=O)nc(N3CCCCC3c3cc4nc5c(c(N6CCOCC6)n4n3)CCCC5)c2c1 (centres unmarked) [Compound P9, N-(6-methyl-4-(2-(9-morpholino-5,6,7,8-tetrahydropyrazolo[5,1-b]-quinazolin-2-yl)piperidin-1-yl)quinazolin-2-yl)methanesulfonamide] | 13.5 nM | 4.3
Fc1cccc2ncnc(N3CCCCC3c3cc4nc5c(c(N6CCOCC6)n4n3)CCCC5)c12 (centres unmarked) [Compound P10, 4-(2-(1-(5-fluoroquinazolin-4-yl)piperidin-2-yl)-5,6,7,8-tetrahydropyrazolo-[5,1-b]quinazolin-9-yl)morpholine] | 891 nM | 4.6
FC(F)(F)c1cccc2ncnc(N3CCCCC3c3cc4nc5c(c(N6CCOCC6)n4n3)CCCC5)c12 (centres unmarked) [Compound P11, 4-(2-(1-(5-(trifluoromethyl)quinazolin-4-yl)piperidin-2-yl)-5,6,7,8-tetrahydropyrazolo[5,1-b]quinazolin-9-yl)morpholine] | 676 nM | 4.7
COc1cccc2ncnc(N3CCCCC3c3cc4nc5c(c(N6CCOCC6)n4n3)CCCC5)c12 (centres unmarked) [Compound P12, 4-(2-(1-(5-methoxyquinazolin-4-yl)piperidin-2-yl)-5,6,7,8-tetrahydropyrazolo[5,1-b]quinazolin-9-yl)morpholine] | 75.9 nM | 4.4
CCc1ccc2ncnc(N3CCCCC3c3cc4nc5c(c(N6CCOCC6)n4n3)CCCC5)c2c1C (centres unmarked) [Compound P13, 4-(2-(1-(6-ethyl-5-methylquinazolin-4-yl)piperidin-2-yl)-5,6,7,8-tetrahydropyrazolo[5,1-b]quinazolin-9-yl)morpholine] | 724 nM | 4.7
Cc1ccc(NS(C)(=O)=O)c(C(=O)N2CCCCC2c2cc3nc4c(c(O)n3n2)CCCC4)c1 (centres unmarked) [Compound P14, N-(2-(2-(9-hydroxy-5,6,7,8-tetrahydropyrazolo[5,1-b]quinazolin-2-yl)-piperidine-1-carbonyl)-4-methylphenyl)methanesulfonamide] | 40.7 nM | 4.3
Cc1ccc(NS(C)(=O)=O)c(C(=O)N2CCCCC2c2cc3nc4c(c(N(C)C)n3n2)CCCC4)c1 (centres unmarked) [Compound P15, N-(2-(2-(9-(dimethylamino)-5,6,7,8-tetrahydropyrazolo[5,1-b]quinazolin-2-yl)piperidine-1-carbonyl)-4-methylphenyl)methanesulfonamide] | 1.78 nM | 4.6
Cc1cccc2ncnc(N3CCCCC3c3cc4nc5c(c(N(C)C)n4n3)CCCC5)c12 (centres unmarked) [Compound P16, N,N-dimethyl-2-(1-(5-methylquinazolin-4-yl)piperidin-2-yl)-5,6,7,8-tetrahydropyrazolo[5,1-b]quinazolin-9-amine] | 407 nM | 4
Cc1ccc(NS(C)(=O)=O)c(C(=O)N2CCCCC2c2cc3nc4c(cn3n2)CCCC4)c1 (centres unmarked) [Compound P17, N-(4-methyl-2-(2-(5,6,7,8-tetrahydropyrazolo[5,1-b]quinazolin-2-yl)-piperidine-1-carbonyl)phenyl)methanesulfonamide] | 97.7 nM | 4.6
Cc1cccc2ncnc(N3CCCCC3c3cc4nc5c(cn4n3)CCCC5)c12 (centres unmarked) [Compound P18, 2-(1-(5-methylquinazolin-4-yl)piperidin-2-yl)-5,6,7,8-tetrahydropyrazolo-[5,1-b]quinazoline] | 3890 nM | 4.3
Cc1ccc(NS(C)(=O)=O)c(C(=O)N2CCCCC2c2cc3nc4c(c(N)n3n2)CCCC4)c1 (centres unmarked) [Compound P19, N-(2-(2-(9-amino-5,6,7,8-tetrahydropyrazolo[5,1-b]quinazolin-2-yl)-piperidine-1-carbonyl)-4-methylphenyl)methanesulfonamide] | 19.5 nM | 4.3
Cc1ccc(NS(C)(=O)=O)c(C(=O)N2CCCCC2c2cc3nc4c(c(N5CCOCC5)n3n2)CCC4)c1 (centres unmarked) [Compound P20, N-(4-methyl-2-(2-(8-morpholino-6,7-dihydro-5H-cyclopenta[d]pyrazolo-[1,5-a]pyrimidin-2-yl)piperidine-1-carbonyl)phenyl)methanesulfonamide] | 22.9 nM | 4.2
Cc1cccc2ncnc(N3CCCCC3c3cc4nc5c(c(N6CCOCC6)n4n3)CCC5)c12 (centres unmarked) [Compound P21, 4-(2-(1-(5-methylquinazolin-4-yl)piperidin-2-yl)-6,7-dihydro-5H-cyclopenta[d]pyrazolo[1,5-a]pyrimidin-8-yl)morpholine] | 708 nM | 4.6
Cc1cccc2ncnc(N3CCCCC3c3cc4nc5c(c(N6CCCC6)n4n3)CCC5)c12 (centres unmarked) [Compound P22, 2-(1-(5-methylquinazolin-4-yl)piperidin-2-yl)-8-(pyrrolidin-1-yl)-6,7-dihydro-5H-cyclopenta[d]pyrazolo[1,5-a]pyrimidine] | 282 nM | 4.6
Cc1ccc(NS(C)(=O)=O)c(C(=O)N2CCCCC2c2cc3nc4c(c(N5CCOCC5)n3n2)CCCCC4)c1 (centres unmarked) [Compound P23, N-(4-methyl-2-(2-(10-morpholino-6,7,8,9-tetrahydro-5H-cyclohepta[d]-pyrazolo[1,5-a]pyrimidin-2-yl)piperidine-1-carbonyl)phenyl)-methanesulfonamide] | 66.1 nM | 4.6
Cc1cccc2ncnc(N3CCCCC3c3cc4nc5c(c(N6CCOCC6)n4n3)CCCCC5)c12 (centres unmarked) [Compound P24, 4-(2-(1-(5-methylquinazolin-4-yl)piperidin-2-yl)-6,7,8,9-tetrahydro-5H-cyclohepta[d]pyrazolo[1,5-a]pyrimidin-10-yl)morpholine] | 9550 nM | 4.8
Cc1ccc(NS(C)(=O)=O)c(C(=O)N2CCCCC2c2cc3nc4c(c(N5CCOCC5)n3n2)COC4)c1 (centres unmarked) [Compound P25, N-(4-methyl-2-(2-(8-morpholino-5,7-dihydrofuro[3,4-d]pyrazolo[1,5-a]-pyrimidin-2-yl)piperidine-1-carbonyl)phenyl)methanesulfonamide] | 468 nM | 4
Cc1ccc(NS(C)(=O)=O)c(C(=O)N2CCCCC2c2cc3nc4c(c(N(C)C)n3n2)CCCN4C)c1 (centres unmarked) [Compound P26, N-(2-(2-(9-(dimethylamino)-5-methyl-5,6,7,8-tetrahydropyrazolo-[1,5-a]pyrido[2,3-d]pyrimidin-2-yl)piperidine-1-carbonyl)-4-methylphenyl)-methane-sulfonamide] | 1.58 nM | 4.4
Cc1ccc(NS(C)(=O)=O)c(C(=O)N2CCCCC2c2cc3nc(N(C)C)c4c(n3n2)N(C)CCC4)c1 (centres unmarked) [Compound P27, N-(2-(2-(5-(dimethylamino)-9-methyl-6,7,8,9-tetrahydropyrazolo-[1,5-a]pyrido[3,2-e]pyrimidin-2-yl)piperidine-1-carbonyl)-4-methylphenyl)methane-sulfonamide] | 2.04 nM | 4.3
